Measured values: patent US10035799B2, “COMT inhibiting methods and compositions” (Lieber Institute for Brain Development, priority 2015, dated 2018)

Molecular target: T1, catechol-O-methyltransferase (COMT) (Homo sapiens, UniProt P21964)
T1 construct: M51A variant) was expressed in HEK 293F cells
T1 sequence (P21964 52-271 limits assumed): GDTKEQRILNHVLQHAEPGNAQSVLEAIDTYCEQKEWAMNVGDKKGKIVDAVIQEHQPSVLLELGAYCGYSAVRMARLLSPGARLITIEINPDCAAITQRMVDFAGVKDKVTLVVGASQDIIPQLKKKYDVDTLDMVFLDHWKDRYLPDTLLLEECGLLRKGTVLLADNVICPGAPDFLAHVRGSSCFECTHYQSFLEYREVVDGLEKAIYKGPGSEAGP
Assay: COMT inhibition assay (HTRF, production of S-adenosyl homocysteine)
Assay type: biochemical
Conditions: recombinant human COMT, HTRF SAH production; MB-COMT or S-COMT not stated for Table 1
Procedure: The ability of compounds to inhibit the activity of catechol-O-methyltransferase (COMT) was determined by a homogenous time-resolved fluorescent (HTRF) assay (Lina et al, 2012; kit from CisBio, Codolet, France). This assay measures the production of S-adenosyl homocysteine (SAH) from the methyl donor S-adenosyl methionine. Recombinant human membrane bound COMT (MB-COMT; M51A variant) was expressed in HEK 293F cells using 293Fectin (Life Technologies, Gent, Belgium) and membranes prepared. The membranes were re-suspended in buffer (20 mM Tris/HCl pH 7; 10 mM glycerol; 2 mM MgCl2; 10 mM NaCl), aliquoted and stored at −80° C. Recombinant human soluble COMT(S-COMT), Va1158 variant and a hexa-His tag on the N-terminus, was purified using Ni-NTA chromatography, the His tag removed and stored in buffer as above.
For the human MB-COMT assay, membranes (62 ng/well) were incubated with SAM (20 μM final, CisBio) and dopamine (1.5 μM final; Sigma H8502, Diegem, Belgium) in the presence or absence of varying concentrations (typically 10 concentrations ranging from 10 μM to 0.1 nM) of compound for 40 min at 37° C. in 384-well microtitre plates (10 μl per well final volume). The reaction was terminated by the addition of acylation buffer and the amount of SAH produced determined according to manufacturer's instructions. Specific inhibition as that inhibited by a high concentration of tolcapone (10 μM; synthesised at UCB) and all experiments were validated using a control curve to tolcapone.
The human S-COMT assay was performed as above except that 0.15 ng enzyme/well was incubated with SAM (20 μM final) and dopamine (100 μM final) for 15 min at 37° C. and SAH production determined.
HTRF readings were performed using a Perkin Elmer Envision and results expressed as concentration of SAH produced using a standard curve. Results were analysed using non-linear regression to the 4-parameter logistic equation and pIC50 (−log 10 concentration of drug which inhibits enzyme activity/SAH production by 50%) determined.

Compound | Activity range (pIC50, COMT inhibition)
O=S(=O)(c1ccc(O)c2ncccc12)N1C[C@@H](F)[C@H](F)C1 [Example 70, 5-[(3R,4R)-3,4-difluoropyrrolidin-1-yl]sulfonylquinolin-8-ol] | +++ (a pIC50 of above about 7)
O=S(=O)(c1ccc(F)cc1)c1ccc(O)c2ncccc12 [Example 2, 5-(4-fluorophenyl)sulfonylquinolin-8-ol] | +++ (a pIC50 of above about 7)
C[C@@H](c1ccccc1)N(C)S(=O)(=O)c1ccc(O)c2ncccc12 [Example 51, 8-hydroxy-N-methyl-N-[(1S)-1-phenylethyl]quinoline-5-sulfonamide] | +++ (a pIC50 of above about 7)
O=S(=O)(c1ccc(O)c2ncccc12)N1CCc2cccnc2C1 [Example 67, 5-(6,8-dihydro-5H-1,7-naphthyridin-7-ylsulfonyl)quinolin-8-ol] | +++ (a pIC50 of above about 7)
O=S(=O)(c1cc(F)c(O)c2ncccc12)N1CCCC1 [Example 113, 7-fluoro-5-pyrrolidin-1-ylsulfonyl-quinolin-8-ol] | +++ (a pIC50 of above about 7)
C[C@H](c1ccccc1)N(C)S(=O)(=O)c1cc(Br)c(O)c2ncccc12 [Example 120, 7-bromo-8-hydroxy-N-methyl-N-[(1R)-1-phenylethyl]quinoline-5-sulfonamide] | + (a pIC50 of from about 4.5 to 6)
O=S(=O)(c1ccc(O)c2ncccc12)N1CCN(Cc2ccc(F)cc2)CC1 [Example 101, 5-[4-[(4-fluorophenyl)methyl]piperazin-1-yl]sulfonylquinolin-8-ol] | +++ (a pIC50 of above about 7)
O=S(=O)(c1ccc(O)c2ncccc12)N1CCN(c2ccc(C(F)(F)F)cc2)CC1 [Example 94, 5-[4-[4-(trifluoromethyl)phenyl]piperazin-1-yl]sulfonylquinolin-8-ol] | ++ (a pIC50 of from about great than 6 to 7)
Cc1ccc(S(=O)(=O)c2cc(Cl)c(O)c3ncccc23)cc1 [Example 109, 7-chloro-5-(p-tolylsulfonyl)quinolin-8-ol] | +++ (a pIC50 of above about 7)
O=S(=O)(c1ccccn1)c1ccc(O)c2ncccc12 [Example 16, 5-(2-pyridylsulfonyl)quinolin-8-ol] | +++ (a pIC50 of above about 7)
O=S(=O)(c1cc(Cl)c(O)c2ncccc12)N1CCN(Cc2ccc(F)cc2)CC1 [Example 112, 7-chloro-5-[4-[(4-fluorophenyl)methyl]piperazin-1-yl]sulfonyl-quinolin-8-ol] | + (a pIC50 of from about 4.5 to 6)
O=S(=O)(c1ccc(Cl)cc1)c1ccc(O)c2ncccc12 [Example 9, 5-(4-chlorophenyl)sulfonylquinolin-8-ol] | +++ (a pIC50 of above about 7)
O=S(=O)(c1ccc(O)c2ncccc12)C1CCN(Cc2ccc(F)cc2)CC1 [Example 35, 5-[[1-[(4-fluorophenyl)methyl]-4-piperidyl]sulfonyl]quinolin-8-ol] | ++ (a pIC50 of from about great than 6 to 7)
CN(Cc1ccc2ccccc2c1)S(=O)(=O)c1ccc(O)c2ncccc12 [Example 55, 8-hydroxy-N-methyl-N-(2-naphthylmethyl)quinoline-5-sulfonamide] | ++ (a pIC50 of from about great than 6 to 7)
O=S(=O)(c1ccncc1)c1ccc(O)c2ncccc12 [Example 17, 5-(4-pyridylsulfonyl)quinolin-8-ol] | ++ (a pIC50 of from about great than 6 to 7)
N#Cc1ccccc1N1CCN(S(=O)(=O)c2ccc(O)c3ncccc23)CC1 [Example 90, 2-[4-[(8-hydroxy-5-quinolyl)sulfonyl]piperazin-1-yl]benzonitrile] | +++ (a pIC50 of above about 7)

Compound | Activity range (pIC50, COMT inhibition)
O=S(=O)(c1ccc(O)c2ncccc12)N1CC2CCC(CC2)C1 [Example 91, 5-(3-azabicyclo[3.2.2]nonan-3-ylsulfonyl)quinolin-8-ol] | +++ (a pIC50 of above about 7)
O=S(=O)(c1ccccc1C(F)(F)F)c1ccc(O)c2ncccc12 [Example 21, 5-[2-(trifluoromethyl)phenyl]sulfonylquinolin-8-ol] | +++ (a pIC50 of above about 7)
O=S(=O)(c1ccc(O)c2ncccc12)N1CC(Oc2ccc(OC(F)(F)F)cc2)C1 [Example 99, 5-[3-[4-(trifluoromethoxy)phenoxy]azetidin-1-yl]sulfonylquinolin-8-ol] | ++ (a pIC50 of from about great than 6 to 7)
O=S(=O)(c1ccc(O)c2ncccc12)N1CCCC1 [Example 59, 5-pyrrolidin-1-ylsulfonylquinolin-8-ol] | +++ (a pIC50 of above about 7)
Cc1ccc(S(=O)(=O)c2cc(Br)c(O)c3ncccc23)cc1 [Example 108, 7-bromo-5-(p-tolylsulfonyl)quinolin-8-ol] | ++ (a pIC50 of from about great than 6 to 7)
O=S(=O)(c1ccc(O)c2ncccc12)N1CCCC1c1ccccc1C(F)(F)F (stereo not shown) [Example 81, 5-[2-[2-(trifluoromethyl)phenyl]pyrrolidin-1-yl]sulfonylquinolin-8-ol] | ++ (a pIC50 of from about great than 6 to 7)
CC1CNCCN1S(=O)(=O)c1ccc(O)c2ncccc12 (stereo not shown) [Example 106, 5-(2-methylpiperazin-1-yl)sulfonylquinolin-8-ol] | + (a pIC50 of from about 4.5 to 6)
COC(=O)N1CCN(S(=O)(=O)c2ccc(O)c3ncccc23)CC1 [Example 88, methyl 4-[(8-hydroxy-5-quinolyl)sulfonyl]piperazine-1-carboxylate] | +++ (a pIC50 of above about 7)
CN(Cc1cccc(Cl)c1)S(=O)(=O)c1ccc(O)c2ncccc12 [Example 53, N-[(3-chlorophenyl)methyl]-8-hydroxy-N-methyl-quinoline-5-sulfonamide] | +++ (a pIC50 of above about 7)
Cc1ccc(S(=O)(=O)c2ccc(O)c3ncccc23)cc1 [Example 1, 5-tosylquinolin-8-ol] | +++ (a pIC50 of above about 7)
CC1CN(C(=O)OC(C)(C)C)CCN1S(=O)(=O)c1ccc(O)c2ncccc12 (stereo not shown) [Example 105, tert-butyl 4-[(8-hydroxy-5-quinolyl)sulfonyl]-3-methyl-piperazine-1-carboxylate] | ++ (a pIC50 of from about great than 6 to 7)
O=S(=O)(c1ccc(O)c2ncccc12)C1CCCCC1 [Example 30, 5-cyclohexylsulfonylquinolin-8-ol] | +++ (a pIC50 of above about 7)
C[C@H](c1ccccc1)N(C)S(=O)(=O)c1ccc(O)c2ncccc12 [Example 50, 8-hydroxy-N-methyl-N-[(1R)-1-phenylethyl]quinoline-5-sulfonamide] | +++ (a pIC50 of above about 7)
O=S(=O)(c1cccc(-c2ccncc2)c1)c1ccc(O)c2ncccc12 [Example 23, 5-[3-(4-pyridyl)phenyl]sulfonylquinolin-8-ol] | +++ (a pIC50 of above about 7)
O=S(=O)(c1cc(Br)c(O)c2ncccc12)N1CCN(Cc2ccc(F)cc2)CC1 [Example 121, 7-bromo-5-[4-[(4-fluorophenyl)methyl]piperazin-1-yl]sulfonyl-quinolin-8-ol] | + (a pIC50 of from about 4.5 to 6)
